Test results published in publication PMC6466480 (Journal of Medicinal Chemistry, 2019).

Assays:
human D4R = biological target: T1, human D4R (Homo sapiens, UniProt P21917); assay: cAMP inhibition assay; type: cell-based; settings: read-out: Emax at D4R (partial agonist)
T1 sequence (P21917 1-419): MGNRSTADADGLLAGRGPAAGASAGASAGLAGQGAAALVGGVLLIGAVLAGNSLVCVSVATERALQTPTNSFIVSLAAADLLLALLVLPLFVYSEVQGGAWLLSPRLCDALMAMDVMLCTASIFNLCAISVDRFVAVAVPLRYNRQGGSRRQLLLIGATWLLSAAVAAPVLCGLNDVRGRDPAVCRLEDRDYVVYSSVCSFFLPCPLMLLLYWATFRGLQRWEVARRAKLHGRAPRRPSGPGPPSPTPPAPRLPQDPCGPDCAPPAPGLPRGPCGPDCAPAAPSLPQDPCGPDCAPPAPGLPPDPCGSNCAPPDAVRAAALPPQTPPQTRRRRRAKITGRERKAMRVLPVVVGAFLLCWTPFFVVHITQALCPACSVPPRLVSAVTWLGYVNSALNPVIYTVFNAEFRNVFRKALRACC

human D3R = human D3R (Homo sapiens, UniProt P35462); assay: β-Arrestin recruitment assay; type: cell-based; settings: agonist mode; percentage of the maximum dopamine response; CHO-K1
D4R = settings: initially characterized as a full agonist; cited from earlier work

human D3R, sequence (P35462 whole entry): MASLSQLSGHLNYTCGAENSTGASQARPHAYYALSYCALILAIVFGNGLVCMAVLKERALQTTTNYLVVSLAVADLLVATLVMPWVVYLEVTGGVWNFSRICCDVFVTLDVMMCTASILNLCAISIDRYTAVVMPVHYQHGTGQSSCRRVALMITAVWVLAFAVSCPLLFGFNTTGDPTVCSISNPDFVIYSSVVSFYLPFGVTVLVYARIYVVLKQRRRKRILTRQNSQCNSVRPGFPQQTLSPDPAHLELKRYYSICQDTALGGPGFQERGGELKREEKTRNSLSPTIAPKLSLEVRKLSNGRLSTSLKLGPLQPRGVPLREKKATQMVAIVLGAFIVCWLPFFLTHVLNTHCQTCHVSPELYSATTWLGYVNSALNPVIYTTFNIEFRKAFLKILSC

- Emax (human D4R): 23 to 62%
- D3R efficacy β-arr Emax (human D3R): very low potency and efficacy
SMILES: Cc1cccc(NC(=O)CN2CCC(c3ccccn3)CC2)c1 [Compound 1, 2-(4-(pyridin-2-yl)piperidin-1-yl)-N-(m-tolyl)acetamide]
- intrinsic activity at D4R (D4R): 83%
